# According to patent USRE48711E1, “Apoptosis signal-regulating kinase inhibitors” (Gilead Sciences, Inc., priority 2009, dated 2021):
# Biological target: ASK1 (Apoptosis Signal-Regulating Kinase 1) (Homo sapiens (Human), UniProt Q99683)
# Assay: ASK1 (Apoptosis Signal-Regulating Kinase 1) TR-FRET Kinase Assay (Biochemical IC50)
# Conditions: TR-FRET, biotin-MBP substrate, 20 min pre-incubation, ATP added as 300 μM solution
# ASK1 (Apoptosis Signal-Regulating Kinase 1), sequence (Q99683 649-946): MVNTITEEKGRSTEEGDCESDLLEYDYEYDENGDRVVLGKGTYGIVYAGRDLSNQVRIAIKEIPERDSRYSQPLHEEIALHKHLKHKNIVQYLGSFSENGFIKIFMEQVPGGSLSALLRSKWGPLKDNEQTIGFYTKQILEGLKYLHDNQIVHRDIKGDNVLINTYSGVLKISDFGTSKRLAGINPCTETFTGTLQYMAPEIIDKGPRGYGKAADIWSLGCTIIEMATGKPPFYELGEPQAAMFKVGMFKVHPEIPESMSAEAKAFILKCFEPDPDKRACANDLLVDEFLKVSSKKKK
row,SMILES,IC50 [nM]
1,"C[C@H]1C[C@@H]1n1cnnc1-c1cccc(NC(=O)c2cc(-c3cccnc3)ccn2)c1 [Example 55, N-(3-(4-((1S,2S)-2-methylcyclopropyl)-4H-1,2,4-triazol-3-yl)phenyl)-3,4′-bipyridine-2′-carboxamide]",24
2,"O=C(Nc1cccc(-c2nncn2C2CC2)c1)c1cc(-c2ccc(OCC(F)(F)F)nc2)ccn1 [Example 56, N-(3-(4-cyclopropyl-4H-1,2,4-triazol-3-yl)phenyl)-6-(2,2,2-trifluoroethoxy)-3,4′-bipyridine-2′-carboxamide]",69
3,"Cc1ccncc1-c1ccnc(C(=O)Nc2cccc(-c3nncn3C3CC3)c2)c1 [Example 57, N-(3-(4-cyclopropyl-4H-1,2,4-triazol-3-yl)phenyl)-4-methyl-3,4′-bipyridine-2′-carboxamide]",244
4,"O=C(Nc1cccc(-c2nncn2CC(F)(F)F)c1)c1cc(-c2cccnc2)ccn1 [Example 58, N-(3-(4-(2,2,2-trifluoroethyl)-4H-1,2,4-triazol-3-yl)phenyl)-3,4′-bipyridine-2′-carboxamide]",290
5,"O=C(Nc1cccc(-c2nncn2C2CC2)c1)c1cc(-c2cncc(C(F)(F)F)c2)ccn1 [Example 59, N-(3-(4-cyclopropyl-4H-1,2,4-triazol-3-yl)phenyl)-5-(trifluoromethyl)-3,4′-bipyridine-2′-carboxamide]",44
6,"O=C(Nc1cccc(-c2nncn2C2CC2)c1)c1cc(-c2cncc(F)c2)ccn1 [Example 60, N-(3-(4-cyclopropyl-4H-1,2,4-triazol-3-yl)phenyl)-5-fluoro-3,4′-bipyridine-2′-carboxamide]",23
7,"O=C(Nc1cccc(-c2nncn2CC2(O)CC2)c1)c1cc(-c2cccnc2)ccn1 [Example 61, N-(3-(4-((1-hydroxycyclopropyl)methyl)-4H-1,2,4-triazol-3-yl)phenyl)-3,4′-bipyridine-2′-carboxamide]",174
8,"C[C@@H](n1cnnc1-c1cccc(NC(=O)c2cc(-c3cccnc3)ccn2)c1)C(F)(F)F [Example 62, (R)-N-(3-(4-(1,1,1-trifluoropropan-2-yl)-4H-1,2,4-triazol-3-yl)phenyl)-3,4′-bipyridine-2′-carboxamide]",1240
9,"C[C@H](n1cnnc1-c1cccc(NC(=O)c2cc(-c3cccnc3)ccn2)c1)C(F)(F)F [Example 63, (S)-N-(3-(4-(1,1,1-trifluoropropan-2-yl)-4H-1,2,4-triazol-3-yl)phenyl)-3,4′-bipyridine-2′-carboxamide]",21
10,"N#Cc1cncc(-c2ccnc(C(=O)Nc3cccc(-c4nncn4C4CC4)c3)c2)c1 [Example 65, 5-cyano-N-(3-(4-cyclopropyl-4H-1,2,4-triazol-3-yl)phenyl)-3,4′-bipyridine-2′-carboxamide]",30
11,"Nc1ncccc1-c1ccnc(C(=O)Nc2cccc(-c3nncn3C3CC3)c2)c1 [Example 66, 2-amino-N-(3-(4-cyclopropyl-4H-1,2,4-triazol-3-yl)phenyl)-3,4′-bipyridine-2′-carboxamide]",86
12,"COc1ncccc1-c1ccnc(C(=O)Nc2cccc(-c3nncn3C3CC3)c2)c1 [Example 67, N-(3-(4-cyclopropyl-4H-1,2,4-triazol-3-yl)phenyl)-2-methoxy-3,4′-bipyridine-2′-carboxamide]",60
13,"Cn1cc(-c2ccnc(C(=O)Nc3cccc(-c4nncn4C4CC4)c3)c2)cn1 [Example 68, N-(3-(4-cyclopropyl-4H-1,2,4-triazol-3-yl)phenyl)-4-(1-methyl-1H-pyrazol-4-yl)picolinamide]",39
14,"O=C(Nc1cccc(-c2nncn2C2CC2)c1)c1cc(-c2ccc(-c3ccc(Cl)nc3)nc2)ccn1 [Example 70, 6-Chloro-[3,2′:5′,4′]terpyridine-2″-carboxylic acid [3-(4-cyclopropyl-4H-[1,2,4]triazol-3-yl)-phenyl]-amide]",106
15,"COc1cncc(-c2ccnc(C(=O)Nc3cccc(-c4nncn4C4CC4)c3)c2)c1 [Example 71, N-(3-(4-cyclopropyl-4H-1,2,4-triazol-3-yl)phenyl)-5-methoxy-3,4′-bipyridine-2′-carboxamide]",17
16,"O=C(Nc1cccc(-c2cncn2C2CC2)c1)c1cc(-c2cccnc2)ccn1 [Example 72, N-(3-(1-cyclopropyl-1H-imidazol-5-yl)phenyl)-3,4′-bipyridine-2′-carboxamide]",36
17,"Cc1ncccc1-c1ccnc(C(=O)Nc2cccc(-c3nncn3C3CC3)c2)c1 [Example 74, N-(3-(4-cyclopropyl-4H-1,2,4-triazol-3-yl)phenyl)-2-methyl-3,4′-bipyridine-2′-carboxamide]",79
18,"O=C(Nc1cccc(-c2nncn2C2CC2)c1)c1cc(-c2cncc(Cl)c2)ccn1 [Example 76, 5-chloro-N-(3-(4-cyclopropyl-4H-1,2,4-triazol-3-yl)phenyl)-3,4′-bipyridine-2′-carboxamide]",34
19,"CS(=O)(=O)c1cccc(-c2ccnc(C(=O)Nc3cccc(-c4nncn4C4CC4)c3)c2)c1 [Example 77, N-(3-(4-cyclopropyl-4H-1,2,4-triazol-3-yl)phenyl)-4-(3-(methylsulfonyl)phenyl)picolinamide]",79
20,"CS(=O)(=O)c1ccccc1-c1ccnc(C(=O)Nc2cccc(-c3nncn3C3CC3)c2)c1 [Example 78, N-(3-(4-cyclopropyl-4H-1,2,4-triazol-3-yl)phenyl)-4-(2-(methylsulfonyl)phenyl)picolinamide]",572
21,"O=C(Nc1cccc(-c2nncn2C2CC2)c1)c1cc(-c2cccnc2)c2ccccc2n1 [Example 80, N-(3-(4-cyclopropyl-4H-1,2,4-triazol-3-yl)phenyl)-4-(pyridin-3-yl)quinoline-2-carboxamide]",36
22,"O=C(Nc1cccc(-c2nncn2C2CC2)c1)c1cc(-n2cnc3cccnc32)ccn1 [Example 82, N-(3-(4-cyclopropyl-4H-1,2,4-triazol-3-yl)phenyl)-4-(3H-imidazo[4,5-b]pyridin-3-yl)picolinamide]",20
23,"O=C(Nc1cccc(-c2nncn2C2CC2)c1)c1cc(-n2cnc3cnccc32)ccn1 [Example 83, N-(3-(4-cyclopropyl-4H-1,2,4-triazol-3-yl)phenyl)-4-(1H-imidazo[4,5-c]pyridin-1-yl)picolinamide]",53
24,"O=C(Nc1cccc(-c2nncn2C2CC2)c1)c1cc(-n2nnc3ccccc32)ccn1 [Example 85, 4-(1H-benzo[d][1,2,3]triazol-1-yl)-N-(3-(4-cyclopropyl-4H-1,2,4-triazol-3-yl)phenyl)picolinamide]",141

# Further lines, results first:
row,IC50 [nM],SMILES
1,8,"COc1ncc(-c2ccnc(C(=O)Nc3cccc(-c4nncn4C4CC4)c3)c2)c(OC)n1 [Example 49, N-(3-(4-cyclopropyl-4H-1,2,4-triazol-3-yl)phenyl)-4-(2,4-dimethoxypyrimidin-5-yl)picolinamide]"
2,8,"O=C(Nc1cccc(-c2nncn2C2CC2)c1)c1cc(-c2ccc(C3CC3)nc2)ccn1 [Example 50, 6-cyclopropyl-N-(3-(4-cyclopropyl-4H-1,2,4-triazol-3-yl)phenyl)-3,4′-bipyridine-2′-carboxamide]"
3,8,"NC(=O)c1ccc(-c2ccnc(C(=O)Nc3cccc(-c4nncn4C4CC4)c3)c2)cn1 [Example 51, N2′-(3-(4-cyclopropyl-4H-1,2,4-triazol-3-yl)phenyl)-3,4′-bipyridine-2′,6-dicarboxamide]"
4,12,"O=C(Nc1cccc(-c2nncn2C2CC2)c1)c1cc(-c2ccc(C(F)(F)F)nc2)ccn1 [Example 52, N-(3-(4-cyclopropyl-4H-1,2,4-triazol-3-yl)phenyl)-6-(trifluoromethyl)-3,4′-bipyridine-2′-carboxamide]"
5,11,"Cc1ccc(-c2ccnc(C(=O)Nc3cccc(-c4nncn4C4CC4)c3)c2)cn1 [Example 53, N-(3-(4-cyclopropyl-4H-1,2,4-triazol-3-yl)phenyl)-6-methyl-3,4′-bipyridine-2′-carboxamide]"
6,5,"O=C(Nc1cccc(-c2nncn2C2CC2)n1)c1cc(-c2cccnc2)ccn1 [Example 54, N-(6-(4-cyclopropyl-4H-1,2,4-triazol-3-yl)pyridin-2-yl)-3,4′-bipyridine-2′-carboxamide]"
7,17,"NC(=O)c1cncc(-c2ccnc(C(=O)Nc3cccc(-c4nncn4C4CC4)c3)c2)c1 [Example 64, N2′-(3-(4-cyclopropyl-4H-1,2,4-triazol-3-yl)phenyl)-3,4′-bipyridine-2′,5-dicarboxamide]"
8,11,"O=C(Nc1cccc(-c2nncn2C2CC2)c1)c1cc(-c2cnc3ccccn23)ccn1 [Example 69, N-(3-(4-cyclopropyl-4H-1,2,4-triazol-3-yl)phenyl)-4-(imidazo[1,2-a]pyridin-3-yl)picolinamide]"
9,11,"Cc1ncc(-c2ccnc(C(=O)Nc3cccc(-c4nncn4C4CC4)c3)c2)n1C [Example 73, N-(3-(4-cyclopropyl-4H-1,2,4-triazol-3-yl)phenyl)-4-(1,2-dimethyl-1H-imidazol-5-yl)picolinamide]"
10,10,"CC(C)(C)NC(=O)c1cncc(-c2ccnc(C(=O)Nc3cccc(-c4nncn4C4CC4)c3)c2)c1 [Example 75, N5-tert-butyl-N2′-(3-(4-cyclopropyl-4H-1,2,4-triazol-3-yl)phenyl)-3,4′-bipyridirie-2′,5-dicarboxamide]"
11,6,"CS(=O)(=O)c1ccc(-c2ccnc(C(=O)Nc3cccc(-c4nncn4C4CC4)c3)c2)cc1 [Example 79, N-(3-(4-cyclopropyl-4H-1,2,4-triazol-3-yl)phenyl)-4-(4-(methylsulfonyl)phenyl)picolinamide]"
12,16,"O=C(Nc1cccc(-c2nncn2C2CC2)c1)c1cc(-n2cnc3ncccc32)ccn1 [Example 81, N-(3-(4-cyclopropyl-4H-1,2,4-triazol-3-yl)phenyl)-4-(1H-imidazo[4,5-b]pyridin-1-yl)picolinamide]"
13,13,"O=C(Nc1cccc(-c2nncn2C2CC2)c1)c1cc(-c2cnc3ccccc3c2)ccn1 [Example 84, N-(3-(4-cyclopropyl-4H-1,2,4-triazol-3-yl)phenyl)-4-(quinolin-3-yl)picolinamide]"
